Literature values as cited in article PMC9329312, “Decoding kinase-adverse event associations for small molecule kinase inhibitors” (Nature Communications, 2022).

Settings: ref FAERS

Structure (SMILES): CCOc1cc2ncc(C#N)c(Nc3ccc(OCc4ccccn4)c(Cl)c3)c2cc1NC(=O)/C=C/CN(C)C [neratinib]
- Drug resistance, % of Cases: 0.15%
- Drug titration, % of Cases: 2.1%
- Dry eye, % of Cases: 0.3%
- Dry mouth, % of Cases: 2.7%
- Dry skin, % of Cases: 2.0%
- Dry throat, % of Cases: 0.075%
- Duodenal ulcer, % of Cases: 0.15%
- Dysarthria, % of Cases: 0.075%
- Dysgeusia, % of Cases: 0.45%
- Dyspepsia, % of Cases: 4.4%
- Dysphagia, % of Cases: 0.5%
- Dysphemia, % of Cases: 0.075%
- Dysphonia, % of Cases: 0.15%
- Dyspnoea exertional, % of Cases: 0.075%
- Dyspnoea, % of Cases: 1.7%
- Dysstasia, % of Cases: 0.075%
- Dysuria, % of Cases: 0.75%
- Ear infection, % of Cases: 0.15%
- Ear pain, % of Cases: 0.075%
- Early satiety, % of Cases: 0.225%
- Eating disorder, % of Cases: 0.15%
- Ecchymosis, % of Cases: 0.075%
- Eczema, % of Cases: 0.075%
- Ejection fraction decreased, % of Cases: 0.15%
- Electrocardiogram QT prolonged, % of Cases: 0.075%
- Electrolyte imbalance, % of Cases: 0.225%
- Emergency care, % of Cases: 0.7%
- Energy increased, % of Cases: 0.075%
- Enteritis, % of Cases: 0.075%
- Eosinophil count increased, % of Cases: 0.075%
- Epinephrine abnormal, % of Cases: 0.075%
- Epistaxis, % of Cases: 1.2%
- Eructation, % of Cases: 0.375%
- Erythema, % of Cases: 0.5%
- Escherichia sepsis, % of Cases: 0.075%
- Escherichia urinary tract infection, % of Cases: 0.075%
- Exfoliative rash, % of Cases: 0.075%
- Eye discharge, % of Cases: 0.225%
- Eye infection, % of Cases: 0.075%
- Eye irritation, % of Cases: 0.075%
- Eye pain, % of Cases: 0.075%
- Eye pruritus, % of Cases: 0.15%
- Eyelid margin crusting, % of Cases: 0.075%
- Facial pain, % of Cases: 0.075%
- Facial paralysis, % of Cases: 0.075%
- Faecaloma, % of Cases: 0.075%
- Faeces discoloured, % of Cases: 0.075%
- Faeces hard, % of Cases: 0.075%
- Faeces pale, % of Cases: 0.225%
- Faeces soft, % of Cases: 0.45%
- Failure to thrive, % of Cases: 0.075%
- Fall, % of Cases: 0.75%
- Fatigue, % of Cases: 25.2%
- Febrile neutropenia, % of Cases: 0.075%
- Feeding disorder, % of Cases: 0.375%
- Feeling abnormal, % of Cases: 1.5%
- Feeling jittery, % of Cases: 0.15%
- Fibromyalgia, % of Cases: 0.075%
- Flank pain, % of Cases: 0.075%
- Flatulence, % of Cases: 1.7%
- Fluid retention, % of Cases: 0.225%
- Flushing, % of Cases: 0.075%
- Food aversion, % of Cases: 0.075%
- Food craving, % of Cases: 0.075%
- Food poisoning, % of Cases: 0.075%
- Fracture, % of Cases: 0.075%
- Frustration tolerance decreased, % of Cases: 0.075%
- Full blood count abnormal, % of Cases: 0.225%
- Fungal infection, % of Cases: 0.075%
- Furuncle, % of Cases: 0.075%
- Gait disturbance, % of Cases: 0.5%
- Gait inability, % of Cases: 0.075%
- Gastric cancer stage IV, % of Cases: 0.075%
- Gastric dilatation, % of Cases: 0.075%
- Gastric disorder, % of Cases: 0.3%
- Gastric neoplasm, % of Cases: 0.075%
- Gastric ulcer haemorrhage, % of Cases: 0.075%
- Gastritis, % of Cases: 0.3%
- Gastroenteritis norovirus, % of Cases: 0.075%
- Gastroenteritis viral, % of Cases: 0.375%
- Gastroenteritis, % of Cases: 0.075%
- Gastrointestinal disorder, % of Cases: 0.225%
- Gastrointestinal haemorrhage, % of Cases: 0.075%
- Gastrointestinal infection, % of Cases: 0.075%
- Gastrointestinal perforation, % of Cases: 0.075%
- Gastrointestinal sounds abnormal, % of Cases: 0.5%
- Gastrooesophageal reflux disease, % of Cases: 2.7%
- Gastrostomy, % of Cases: 0.075%
- Gingival bleeding, % of Cases: 0.075%
- Gingivitis, % of Cases: 0.075%
- Glomerular filtration rate decreased, % of Cases: 0.225%
- Glossodynia, % of Cases: 0.075%
- Glycosylated haemoglobin increased, % of Cases: 0.075%
- Gout, % of Cases: 0.075%
- Groin pain, % of Cases: 0.075%
- Haematemesis, % of Cases: 0.3%
- Haematochezia, % of Cases: 0.6%
- Haematocrit decreased, % of Cases: 0.075%
- Haemoglobin abnormal, % of Cases: 0.075%
- Haemoglobin decreased, % of Cases: 0.45%
- Haemorrhage, % of Cases: 0.375%
- Haemorrhoidal haemorrhage, % of Cases: 0.075%
- Haemorrhoids, % of Cases: 0.15%
- Hair growth abnormal, % of Cases: 0.15%
- Hair growth rate abnormal, % of Cases: 0.075%
- Hair texture abnormal, % of Cases: 0.075%
- Hallucination, % of Cases: 0.075%
- Head and neck cancer, % of Cases: 0.075%
- Head discomfort, % of Cases: 0.075%
- Headache, % of Cases: 5.4%
- Heart rate decreased, % of Cases: 0.075%
- Heart rate increased, % of Cases: 0.5%
- Helicobacter infection, % of Cases: 0.075%
- Hepatic cyst, % of Cases: 0.075%
- Hepatic enzyme abnormal, % of Cases: 0.075%
- Hepatic enzyme increased, % of Cases: 1.5%
- Hepatic failure, % of Cases: 0.15%
- Hepatic function abnormal, % of Cases: 0.075%
- Hepatic steatosis, % of Cases: 0.075%
- Hepatitis, % of Cases: 0.3%
- Hepatomegaly, % of Cases: 0.075%
- Hepatotoxicity, % of Cases: 0.075%
- Hernia, % of Cases: 0.075%
- Herpes zoster, % of Cases: 0.15%
- Hiccups, % of Cases: 0.15%
- Hip arthroplasty, % of Cases: 0.075%
- Hordeolum, % of Cases: 0.15%
- Hospice care, % of Cases: 0.7%
- Hospitalisation, % of Cases: 5.3%
- Hot flush, % of Cases: 0.6%
- Human epidermal growth factor receptor negative, % of Cases: 0.075%
- Hydrocephalus, % of Cases: 0.075%
- Hyperbilirubinaemia, % of Cases: 0.075%
- Hyperchlorhydria, % of Cases: 0.15%
- Hyperglycaemia, % of Cases: 0.225%
- Hyperhidrosis, % of Cases: 0.075%
- Hypersensitivity, % of Cases: 0.5%
- Hypersomnia, % of Cases: 0.075%
- Hypertension, % of Cases: 0.15%
- Hypoaesthesia oral, % of Cases: 0.15%
- Hypoaesthesia, % of Cases: 1.0%
- Hypogeusia, % of Cases: 0.075%
- Hypokalaemia, % of Cases: 0.45%
- Hypomagnesaemia, % of Cases: 0.075%
- Hyponatraemia, % of Cases: 0.075%
- Hypophagia, % of Cases: 0.15%
- Hypophosphataemia, % of Cases: 0.075%
- Hypotension, % of Cases: 0.6%
- Hypovolaemia, % of Cases: 0.075%
- Hypoxia, % of Cases: 0.15%
- Hysterectomy, % of Cases: 0.15%
- Illness, % of Cases: 1.7%
- Impaired driving ability, % of Cases: 0.075%
- Impaired healing, % of Cases: 0.15%
- Impaired quality of life, % of Cases: 0.375%
- Implantable defibrillator insertion, % of Cases: 0.075%
- Inappropriate schedule of product administration, % of Cases: 0.45%
- Incision site abscess, % of Cases: 0.075%
- Incorrect dosage administered, % of Cases: 0.075%
- Incorrect dose administered, % of Cases: 1.7%
- Increased appetite, % of Cases: 0.075%
- Infection, % of Cases: 0.6%
- Influenza like illness, % of Cases: 0.3%
- Influenza, % of Cases: 0.7%
- Infrequent bowel movements, % of Cases: 0.075%
- Insomnia, % of Cases: 1.2%
- Intensive care, % of Cases: 0.075%
- Intentional dose omission, % of Cases: 0.225%
- Intentional product use issue, % of Cases: 0.15%
- Intentional underdose, % of Cases: 0.15%
- Intervertebral disc protrusion, % of Cases: 0.075%
- Intestinal haemorrhage, % of Cases: 0.075%
- Intestinal obstruction, % of Cases: 0.075%
